How the values were obtained:
[1] = tested on: human rhabdomyosarcoma cell line TE671; conditions: well-described phenomenon; cited from earlier work
HIV-1 p24^gag antigen = assay: HIV-1 p24gag antigen production, antigen-capture ELISA of culture medium; format: cell-based
OM-10.1 cells = assay: Intracellular p24 fluorescence in OM-10.1 cells; format: cell-based; conditions: vpr supernatant versus control supernatant
Description: In other experiments, OM-10.1 cells, which are T lymphoid in origin, were treated with either control supernatant lacking vpr or vpr supernatant from baculovirus-infected cells. Cells are shown in visible light and stained for intracellular p24 detected by fluorescence microscopy. The intensity of fluorescence is a measure of the virus expression.

[2] = tested on: TE671 rhabdomyosarcoma cells; assay: Biological activity of baculovirus vpr supernatant on TE671 cells; format: cell-based, human
Text: Recombinant vpr protein can be tested for biological activity in tissue culture. Vpr and control supernatants were dialyzed against PBS and applied to TE671 rhabdomyosarcoma cells. TE671 cells differentiate and cease to proliferate when transfected with the vpr gene or infected with HIV (Gras-Masse et al., supra; Levy et al., supra). […] Cells exposed to vpr for 3 days were examined for the presence of adult muscle myosin, a differentiation marker for these cells (Aguanno et al., Cancer Res., 1990, 50, 3377).

[3] = continuous exposure to 20% vpr supernatant

| Compound | morphology and growth of stimulated TE671 cells [1] | increase in p24 release (HIV-1 p24^gag antigen; pNLpuroΔvpr-transfected cells exposed to phorbol ester) | p24 release (HIV-1 p24^gag antigen; undifferentiated pNLpuro-transfected cells exposed to phorbol ester) | retrovirus expression, intracellular p24 fluorescence (OM-10.1 cells) | time to cessation of proliferation [2, 3] | time to morphological differentiation [2, 3] | effect on cell survival ([2]; exposure to greater than 20% supernatant) |
| --- | --- | --- | --- | --- | --- | --- | --- |
| CCCCCCCCCCCCCC(=O)O[C@@H]1[C@@H](C)[C@@]2(O)[C@@H](C=C(CO)C[C@]3(O)C(=O)C(C)=C[C@@H]23)[C@@H]2C(C)(C)[C@]12OC(C)=O [phorbol myristate acetate] | increase in overall size and length, are often multinucleated, and display slowed proliferation | 3 fold | no measurable p24 release | – | – | – | – |
| vpr protein: HIV-1 viral protein R produced in baculovirus-infected insect cells, used as supernatant or partially purified | – | – | – | induces a high level of retrovirus expression | approximately 3 days | 7-9 days | rapidly fatal |
